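Briefly, cells in 96-well plates were exposed to five compound concentrations for 48 h, and endpoints were estimated by linear interpolation. TGI denotes the concentration required for complete inhibition of growth.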
Legend:
Assay in all cases: NCI tumour cell line growth inhibition, 48 h
786-0 renal = system: 786-0 renal
A498 renal = system: A498 renal
A549 NSCLC = system: A549 NSCLC
ACHN renal = system: ACHN renal
BT-549 breast = system: BT-549 breast
CAKI-1 renal = system: CAKI-1 renal
CCRF-CEM leukemia = system: CCRF-CEM leukemia
COLO 205 colon = system: COLO 205 colon
DU-145 prostate = system: DU-145 prostate
EKVX NSCLC = system: EKVX NSCLC
HCC-2998 colon = system: HCC-2998 colon
HCT-116 colon = system: HCT-116 colon
HCT-15 colon = system: HCT-15 colon
HL-60(TB) leukemia = system: HL-60(TB) leukemia
HOP-62 NSCLC = system: HOP-62 NSCLC
HOP-92 NSCLC = system: HOP-92 NSCLC
HS 578T breast = system: HS 578T breast
HT29 colon = system: HT29 colon
IGROV1 ovarian = system: IGROV1 ovarian
KM12 colon = system: KM12 colon
LOX IMVI melanoma = system: LOX IMVI melanoma
M14 melanoma = system: M14 melanoma
MALME-3M melanoma = system: MALME-3M melanoma
MCF7 breast = system: MCF7 breast
MDA-MB-231 breast = system: MDA-MB-231 breast
MDA-MB-435 = system: MDA-MB-435
MDA-N = system: MDA-N
MOLT-4 leukemia = system: MOLT-4 leukemia
NCI-H226 lung = system: NCI-H226 lung
NCI-H23 lung = system: NCI-H23 lung
NCI-H460 lung = system: NCI-H460 lung
NCI-H522 lung = system: NCI-H522 lung
NCI/ADR-RES ovarian = system: NCI/ADR-RES ovarian
OVCAR-3 ovarian = system: OVCAR-3 ovarian
OVCAR-4 ovarian = system: OVCAR-4 ovarian
OVCAR-5 ovarian = system: OVCAR-5 ovarian
OVCAR-8 ovarian = system: OVCAR-8 ovarian
PC-3 prostate = system: PC-3 prostate
RXF 393 renal = system: RXF 393 renal
SF-268 CNS = system: SF-268 CNS
SF-295 CNS = system: SF-295 CNS
SF-539 CNS = system: SF-539 CNS
SK-MEL-28 melanoma = system: SK-MEL-28 melanoma
SK-MEL-5 melanoma = system: SK-MEL-5 melanoma
SK-OV-3 ovarian = system: SK-OV-3 ovarian
SN12C renal = system: SN12C renal
SNB-19 CNS = system: SNB-19 CNS
SNB-75 CNS = system: SNB-75 CNS
SR leukemia = system: SR leukemia
SW-620 colon = system: SW-620 colon
T-47D breast = system: T-47D breast
TK-10 renal = system: TK-10 renal
UACC-257 melanoma = system: UACC-257 melanoma
UACC-62 melanoma = system: UACC-62 melanoma
UO-31 renal = system: UO-31 renal
SK-MEL-2 melanoma = system: SK-MEL-2 melanoma
U251 CNS = system: U251 CNS

O=C1C=CC(=O)c2c(O)c(N3CCN(c4ccccn4)CC3)c(Cl)c(O)c21
TGI (786-0 renal): 1.71 µM
TGI (A498 renal): 9.68 µM
TGI (A549 NSCLC): 11.8 µM
TGI (ACHN renal): 6.51 µM
TGI (BT-549 breast): 3.43 µM
TGI (CAKI-1 renal): 4.55 µM
TGI (CCRF-CEM leukemia): 1.84 µM
TGI (COLO 205 colon): 2.8 µM
TGI (DU-145 prostate): 10.5 µM
TGI (EKVX NSCLC): 19.6 µM
TGI (HCC-2998 colon): 5.99 µM
TGI (HCT-116 colon): 3.25 µM
TGI (HCT-15 colon): 2.48 µM
TGI (HL-60(TB) leukemia): 0.692 µM
TGI (HOP-62 NSCLC): 9.58 µM
TGI (HOP-92 NSCLC): 2.72 µM
TGI (HS 578T breast): 4.97 µM
TGI (HT29 colon): 2.05 µM
TGI (IGROV1 ovarian): 3.22 µM
TGI (KM12 colon): 7.02 µM
TGI (LOX IMVI melanoma): 0.299 µM
TGI (M14 melanoma): 2.85 µM
TGI (MALME-3M melanoma): 3.05 µM
TGI (MCF7 breast): 3.01 µM
TGI (MDA-MB-231 breast): 3.55 µM
TGI (MDA-MB-435): 9.29 µM
TGI (MDA-N): 2.81 µM
TGI (MOLT-4 leukemia): 2.01 µM
TGI (NCI-H226 lung): 10.2 µM
TGI (NCI-H23 lung): 2.45 µM
TGI (NCI-H460 lung): 8.53 µM
TGI (NCI-H522 lung): 3.5 µM
TGI (NCI/ADR-RES ovarian): 8.98 µM
TGI (OVCAR-3 ovarian): 4 µM
TGI (OVCAR-4 ovarian): 3.02 µM
TGI (OVCAR-5 ovarian): 17.9 µM
TGI (OVCAR-8 ovarian): 6.25 µM
TGI (PC-3 prostate): 4.48 µM
TGI (RXF 393 renal): 3.16 µM
TGI (SF-268 CNS): 7.44 µM
TGI (SF-295 CNS): 10.7 µM
TGI (SF-539 CNS): 3.2 µM
TGI (SK-MEL-28 melanoma): 3.37 µM
TGI (SK-MEL-5 melanoma): 2.95 µM
TGI (SK-OV-3 ovarian): 21.2 µM
TGI (SN12C renal): 3.36 µM
TGI (SNB-19 CNS): 18 µM
TGI (SNB-75 CNS): 3.43 µM
TGI (SR leukemia): 4.96 µM
TGI (SW-620 colon): 1.94 µM
TGI (T-47D breast): 3.07 µM
TGI (TK-10 renal): 4.94 µM
TGI (UACC-257 melanoma): 3.87 µM
TGI (UACC-62 melanoma): 2.01 µM
TGI (UO-31 renal): 3.68 µM

CCC(O)CC1OC2(CCC1C)CC1OC(=O)/C=C\C(C)(O)C(O)C(C)C(O)C(OC3CC(OC)C(O)C(C)O3)C(O)C(C)(O)CCC/C=C/C3CC(C)COC3(O)CC(O2)C1C (configuration not stated)
TGI (786-0 renal): > 89.4 µM
TGI (A498 renal): > 100 µM
TGI (A549 NSCLC): > 100 µM
TGI (ACHN renal): 50.9 µM
TGI (BT-549 breast): 41.2 µM
TGI (CAKI-1 renal): 33.3 µM
TGI (CCRF-CEM leukemia): > 60.5 µM
TGI (COLO 205 colon): 17.2 µM
TGI (DU-145 prostate): > 100 µM
TGI (EKVX NSCLC): 26 µM
TGI (HCC-2998 colon): 62.3 µM
TGI (HCT-116 colon): 29.5 µM
TGI (HCT-15 colon): 56.8 µM
TGI (HL-60(TB) leukemia): 10.6 µM
TGI (HOP-62 NSCLC): 35.7 µM
TGI (HOP-92 NSCLC): > 100 µM
TGI (HS 578T breast): 38.2 µM
TGI (HT29 colon): 35.1 µM
TGI (IGROV1 ovarian): 47.1 µM
TGI (KM12 colon): 16.8 µM
TGI (LOX IMVI melanoma): 36.7 µM
TGI (M14 melanoma): 22 µM
TGI (MALME-3M melanoma): 35.5 µM
TGI (MCF7 breast): 30.2 µM
TGI (MDA-MB-231 breast): > 77.9 µM
TGI (MDA-MB-435): 25.4 µM
TGI (MDA-N): 23.8 µM
TGI (MOLT-4 leukemia): 7.84 µM
TGI (NCI-H226 lung): 27.3 µM
TGI (NCI-H23 lung): 71 µM
TGI (NCI-H460 lung): > 75.2 µM
TGI (NCI-H522 lung): 16.3 µM
TGI (NCI/ADR-RES ovarian): 45.1 µM
TGI (OVCAR-3 ovarian): 27.2 µM
TGI (OVCAR-4 ovarian): 48.6 µM
TGI (OVCAR-5 ovarian): 53 µM
TGI (OVCAR-8 ovarian): 24.6 µM
TGI (PC-3 prostate): 20.4 µM
TGI (RXF 393 renal): > 100 µM
TGI (SF-268 CNS): 90.1 µM
TGI (SF-295 CNS): > 41.8 µM
TGI (SF-539 CNS): 44.9 µM
TGI (SK-MEL-2 melanoma): 29.6 µM
TGI (SK-MEL-28 melanoma): 54.6 µM
TGI (SK-MEL-5 melanoma): 8.9 µM
TGI (SK-OV-3 ovarian): > 100 µM
TGI (SN12C renal): > 77.3 µM
TGI (SNB-19 CNS): > 100 µM
TGI (SNB-75 CNS): 27.3 µM
TGI (SR leukemia): > 80.7 µM
TGI (SW-620 colon): > 100 µM
TGI (T-47D breast): 23.6 µM
TGI (TK-10 renal): 37 µM
TGI (U251 CNS): > 100 µM
TGI (UACC-257 melanoma): 15.4 µM
TGI (UACC-62 melanoma): 32.2 µM
TGI (UO-31 renal): 68.7 µM

— PubChem BioAssay (NCI)
